ChEMBL document CHEMBL4414648, “Novel Benzohydroxamate-Based Potent and Selective Histone Deacetylase 6 (HDAC6) Inhibitors Bearing a Pentaheterocyclic Scaffold: Design, Synthesis, and Biological Evaluation” (J Med Chem, 2019)
The source made the active and inactive calls. The calls are words filed in the database; no cut-off is given here.

Assays:
[1] = system: 697; assay: Cytotoxicity against human 697 cells after 48 hrs by CellTiter 96 aqueous one solution assay; assay type: cell-based; settings: Homo sapiens, 697, 48 h
[2] = system: Mus musculus; assay: In vivo inhibition of HDAC in C57BL/6 mouse assessed as increase in acetylated-histone H3 level in spleen nuclear protein extracts at 30 mg/kg, ip measured after 60 mins by sandwich ELISA relative to control; assay type: organism-based; settings: 1 h
[3] = Toxicity in C57BL/6 mouse assessed as effect on stool up to 50 mg/kg, ip administered for 5 days/week for two cycles and measured daily starting from day 1; assay type: organism-based; settings: in vivo, 120 h
[4] = Stability in rat liver S9 fraction assessed as parent compound remaining at 5 uM after 90 mins in presence of NADPH by LC-MS/MS analysis; assay type: ADME, subcellular; settings: read-out: Stability
[5] = Toxicity in C57BL/6 mouse assessed as induction of piloerection up to 50 mg/kg, ip administered for 5 days/week for two cycles and measured daily starting from day 1; assay type: organism-based; settings: in vivo, 120 h
[6] = Selectivity ratio of IC50 for human HDAC4 expressed in baculovirus infected sf9 insect cells to IC50 for human N-terminal GST-tagged HDAC6 expressed in baculovirus infected sf9 insect cells
[7] = Stability in human liver S9 fraction assessed as parent compound remaining at 5 uM after 90 mins in presence of NADPH by LC-MS/MS analysis; assay type: ADME, subcellular; settings: read-out: Stability
[8] = Toxicity in C57BL/6 mouse assessed as effect on postural changes up to 50 mg/kg, ip administered for 5 days/week for two cycles and measured daily starting from day 1; assay type: organism-based; settings: in vivo, 120 h
[9] = system: Mus musculus; assay: Ratio of in vivo inhibition of HDAC6 in C57BL/6 mouse assessed as fold increase in acetylated tubulin level in spleen cytosolic protein extract to in vivo inhibition of HDAC in C57BL/6 mouse assessed as fold increase in acetylated-histone H3 level in spleen nuclear protein extracts
[10] = target: Cytochrome P450 3A4 (Homo sapiens, UniProt P08684)
Description: Inhibition of CYP3A4 in human liver microsomes using testosterone as substrate

[11] = Drug level in C57BL/6 mouse plasma at 30 mg/kg, ip measured after 24 hrs; assay type: ADME, organism-based; settings: in vivo, BLD = below limit of detection
[12] = target: T1, Protein deacetylase HDAC6 (Homo sapiens) (UniProt Q9UBN7); assay: Inhibition of HDAC6 in HEK293 cells harboring human Foxp3 assessed as induction of Foxp3 hyperacetylation in whole cell lysates at 500 nM incubated for 6 hrs by SDS-PAGE based Western blot analysis; assay type: subcellular; settings: Lysate
T1 sequence (whole entry): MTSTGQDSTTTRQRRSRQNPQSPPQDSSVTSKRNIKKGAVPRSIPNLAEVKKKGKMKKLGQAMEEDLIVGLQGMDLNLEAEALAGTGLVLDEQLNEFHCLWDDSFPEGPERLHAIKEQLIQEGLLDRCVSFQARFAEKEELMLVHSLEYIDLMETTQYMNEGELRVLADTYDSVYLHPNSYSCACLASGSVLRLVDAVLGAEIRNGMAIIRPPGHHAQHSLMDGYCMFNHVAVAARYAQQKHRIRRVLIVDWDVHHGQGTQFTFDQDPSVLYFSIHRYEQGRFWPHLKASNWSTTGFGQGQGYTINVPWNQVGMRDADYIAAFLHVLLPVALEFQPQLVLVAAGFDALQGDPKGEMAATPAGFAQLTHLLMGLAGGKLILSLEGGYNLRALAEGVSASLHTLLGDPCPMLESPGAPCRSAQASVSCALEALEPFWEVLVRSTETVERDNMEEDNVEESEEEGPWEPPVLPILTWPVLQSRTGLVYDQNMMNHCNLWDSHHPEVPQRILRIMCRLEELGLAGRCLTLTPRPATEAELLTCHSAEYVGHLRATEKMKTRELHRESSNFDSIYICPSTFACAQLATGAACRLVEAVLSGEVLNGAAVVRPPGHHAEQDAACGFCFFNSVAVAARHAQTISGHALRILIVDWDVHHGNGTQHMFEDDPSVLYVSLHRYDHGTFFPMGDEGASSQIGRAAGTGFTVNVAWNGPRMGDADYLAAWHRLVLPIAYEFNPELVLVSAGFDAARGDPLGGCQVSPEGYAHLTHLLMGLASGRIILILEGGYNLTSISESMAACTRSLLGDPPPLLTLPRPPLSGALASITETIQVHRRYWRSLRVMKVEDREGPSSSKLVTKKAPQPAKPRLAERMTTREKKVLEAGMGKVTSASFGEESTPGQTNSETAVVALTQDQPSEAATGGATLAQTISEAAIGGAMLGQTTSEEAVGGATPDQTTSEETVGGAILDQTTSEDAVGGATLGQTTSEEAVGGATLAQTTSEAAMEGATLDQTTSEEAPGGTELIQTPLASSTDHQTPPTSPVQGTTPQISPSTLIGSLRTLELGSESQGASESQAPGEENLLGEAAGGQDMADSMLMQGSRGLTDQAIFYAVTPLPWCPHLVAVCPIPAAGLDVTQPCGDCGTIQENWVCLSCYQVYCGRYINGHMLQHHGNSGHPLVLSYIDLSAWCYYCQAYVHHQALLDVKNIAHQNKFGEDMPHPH

[13] = Selectivity ratio of IC50 for C-terminal GST-tagged human HDAC5 to IC50 for human N-terminal GST-tagged HDAC6 expressed in baculovirus infected sf9 insect cells
[14] = Toxicity in C57BL/6 mouse assessed as effect on body weight at 50 mg/kg, ip administered for 5 days/week for two cycles and measured every other day relative to control; assay type: organism-based; settings: in vivo, 120 h
[15] = Toxicity in C57BL/6 mouse assessed as induction of leukopenia up to 50 mg/kg, ip administered for 5 days/week for two cycles; assay type: organism-based; settings: in vivo, 120 h
[16] = Toxicity in C57BL/6 mouse assessed as effect on platelet level at 10 mg/kg, ip administered for 5 days/week for two cycles and measured 60 mins post last dose by cell counter method relative to control; assay type: organism-based; settings: in vivo, 1 h
[17] = Selectivity ratio of IC50 for N-terminal Flag-tagged human HDAC10 (2 to 631 residues) expressed in baculovirus infected sf9 insect cells to IC50 for human N-terminal GST-tagged HDAC6 expressed in baculovirus infected sf9 insect cells
[18] = Total clearance in CD-1 mouse at […], iv measured within 6 hrs by LC-MS/MS analysis; assay type: ADME, organism-based; settings: in vivo
[19] = Total AUC in CD-1 mouse at 5.2 mg/kg, po measured within 6 hrs by LC-MS/MS analysis; assay type: ADME, organism-based; design: dose 5.2 mg/kg, route oral, time AUCmax; settings: in vivo
[20] = Cmax in CD-1 mouse at 5.2 mg/kg, po measured within 6 hrs by LC-MS/MS analysis; assay type: ADME, organism-based; design: dose 5.2 mg/kg, route oral; settings: in vivo
[21] = system: Mus musculus; assay: In vivo inhibition of HDAC6 in C57BL/6 mouse assessed as increase in acetylated tubulin level in spleen cytosolic protein extract at 30 mg/kg, ip measured after 60 mins by ELISA relative to control; assay type: functional
[22] = Toxicity in C57BL/6 mouse assessed as effect on platelet level at 30 mg/kg, ip administered for 5 days/week for two cycles and measured 60 mins post last dose by cell counter method relative to control; assay type: organism-based; settings: in vivo, 1 h

Cytochrome P450 3A4, sequence (P08684 whole entry): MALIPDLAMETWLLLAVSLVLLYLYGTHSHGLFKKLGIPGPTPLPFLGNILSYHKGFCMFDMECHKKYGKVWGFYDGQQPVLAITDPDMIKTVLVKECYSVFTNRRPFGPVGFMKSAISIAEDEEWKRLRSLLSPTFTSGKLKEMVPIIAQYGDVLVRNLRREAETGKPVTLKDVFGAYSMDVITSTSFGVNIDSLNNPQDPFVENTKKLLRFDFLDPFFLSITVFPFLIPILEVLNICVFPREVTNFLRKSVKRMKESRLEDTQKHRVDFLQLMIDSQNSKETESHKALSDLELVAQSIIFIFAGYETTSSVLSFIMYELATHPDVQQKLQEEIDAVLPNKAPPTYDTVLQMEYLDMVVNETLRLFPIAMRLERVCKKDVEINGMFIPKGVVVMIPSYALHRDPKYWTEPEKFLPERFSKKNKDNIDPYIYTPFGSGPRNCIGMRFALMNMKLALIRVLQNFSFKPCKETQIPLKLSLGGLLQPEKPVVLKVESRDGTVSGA

**Q.** With `Cn1c(Sc2ccc(C(=O)NO)cc2)nnc1-c1cccs1` as the compound, how does the IC50 [1] read?
**A.** The IC50 was over 1 µM.

**Q.** What about the “fold change (FC)” value [2] of the same compound?
**A.** The value was 3.

**Q.** What about the Activity [3] of the same compound?
**A.** The Activity was “Non-Toxic”.

**Q.** What about the remaining at […], 5 µM [4] of the same compound?
**A.** Its remaining at […], 5 µM is 82%.

**Q.** What about the Activity [5] of the same compound?
**A.** Its Activity is “Non-Toxic”.

**Q.** What about the “Ratio IC50” value [6] of the same compound?
**A.** Its value is 304.

**Q.** And the remaining at […], 5 µM [7]?
**A.** Its remaining at […], 5 µM is 95%.

**Q.** And the Activity [8]?
**A.** Its Activity is “Non-Toxic”.

**Q.** And the Ratio [9]?
**A.** The Ratio was 3.5.

**Q.** And the IC50 [10]?
**A.** Its IC50 is 26.6 µM.

**Q.** What about the Drug uptake [11] of the same compound?
**A.** Its Drug uptake is “Bld”.

**Q.** What about the inhibition [12] of the same compound?
**A.** The inhibition was “Active”.

**Q.** And the “Ratio IC50” value [13]?
**A.** The value was 326.

**Q.** And the Activity [14]?
**A.** Its Activity is 3.5%.

**Q.** What about the Activity [15] of the same compound?
**A.** Its Activity is “Toxic”.

**Q.** What about the Activity [16] of the same compound?
**A.** Its Activity is -11%.

**Q.** What about the “Ratio IC50” value [17] of the same compound?
**A.** The value was 343.

**Q.** What about the clearance at 6 h [18] of the same compound?
**A.** Its clearance at 6 h is 182 mL/min/kg.

**Q.** What about the AUC at 6 h [19] of the same compound?
**A.** The AUC at 6 h was 123 ng·h/mL.

**Q.** And the Cmax [20]?
**A.** Its Cmax is 144 ng/mL.

**Q.** What about the “fold change (FC)” value [21] of the same compound?
**A.** The value was 10.

**Q.** What about the Activity [22] of the same compound?
**A.** Its Activity is -2%.
